From US9718828B2 (MERCK SHARP & DOHME CORP., priority 2011, dated 2017) come the findings set out here.

pEC50: −log10 of the molar value. Counter-ions that a name gives are not always drawn.

Chain of Btk enzyme (His-Btk) (Q06187 whole entry): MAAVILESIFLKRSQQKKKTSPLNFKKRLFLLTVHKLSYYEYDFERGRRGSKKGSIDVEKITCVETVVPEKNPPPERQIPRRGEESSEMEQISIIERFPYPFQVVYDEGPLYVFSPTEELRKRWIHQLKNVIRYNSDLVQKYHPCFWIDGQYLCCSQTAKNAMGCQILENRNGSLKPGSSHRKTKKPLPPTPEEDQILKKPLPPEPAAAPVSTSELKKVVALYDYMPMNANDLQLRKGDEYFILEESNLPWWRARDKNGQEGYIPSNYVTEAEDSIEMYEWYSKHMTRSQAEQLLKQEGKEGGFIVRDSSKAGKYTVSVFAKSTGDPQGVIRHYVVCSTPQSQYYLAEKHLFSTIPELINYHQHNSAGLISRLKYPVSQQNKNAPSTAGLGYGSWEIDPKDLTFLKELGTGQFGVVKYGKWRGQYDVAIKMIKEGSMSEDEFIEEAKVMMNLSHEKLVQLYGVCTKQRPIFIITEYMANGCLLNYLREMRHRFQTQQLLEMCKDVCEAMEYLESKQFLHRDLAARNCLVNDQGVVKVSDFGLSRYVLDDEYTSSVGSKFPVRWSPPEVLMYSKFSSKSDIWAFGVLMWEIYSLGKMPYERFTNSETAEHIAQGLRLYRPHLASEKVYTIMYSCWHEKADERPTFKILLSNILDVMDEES

One assay addresses Btk enzyme (His-Btk) (Homo sapiens (Human), UniProt Q06187). The experiment in a line: Btk enzyme activity, IMAP fluorescence polarization assay (Assay Method A).
Conditions: not given
With `COc1cc(-c2nc([C@H]3CC[C@H](O)CC3)n3ccnc(N)c23)ccc1C(=O)Nc1ccccn1` [Example 9, 4-(8-amino-3-((trans)-4-hydroxycyclohexyl)imidazo[1,5-a]pyrazin-1-yl)-2-methoxy-N-(pyridin-2-yl)benzamide], the negative-log EC50 (pEC50) (as a rule, the negative decadic logarithm of the EC50, by convention in mol/L) was 7.00 to 8.00.

The molecule `CCC(=O)N1CCC2(CC1)CC2c1nc(-c2ccc(C(=O)Nc3ccccn3)cc2)c2c(N)nccn12` (stereo not drawn) [Example 153, 4-(8-amino-3-(6-propionyl-6-azaspiro[2.5]octan-1-yl)imidazo[1,5-a]pyrazin-1-yl)-N-(pyridin-2-yl)benzamide] gave a negative logarithm of the EC50 (pEC50) of 6.00 to 7.00.

The molecule `CC1(C(=O)N2C[C@@H](O)C[C@@H](c3nc(-c4ccc(C(=O)Nc5cc(C(F)(F)F)ccn5)cc4)c4c(N)nccn34)C2)COC1` (relative stereo) [Example 179, 4-(8-amino-3-((cis)-5-hydroxy-1-(3-methyloxetane-3-carbonyl)piperidin-3-yl)imidazo[1,5-a]pyrazin-1-yl)-N-(4-(trifluoromethyl)pyridin-2-yl)benzamide] had a pEC50 of 7.00 to 8.00.

`COCCC(=O)N1C2CCC1C(c1nc(-c3ccc(C(=O)Nc4ccccn4)cc3)c3c(N)nccn13)C2` (stereo not drawn) [Example 148, 4-(8-amino-3-(7-(3-methoxypropanoyl)-7-azabicyclo[2.2.1]heptan-2-yl)imidazo[1,5-a]pyrazin-1-yl)-N-(pyridin-2-yl)benzamide] showed a pEC50 of 7.00 to 8.00.

As for `Nc1nccn2c1c(-c1ccc(C(=O)Nc3ccccn3)cc1)nc2[C@H]1CC[C@H](O)CC1` [Example 1, 4-(8-amino-3-((trans)-4-hydroxycyclohexyl)imidazo[1,5-a]pyrazin-1-yl)-N-(pyridin-2-yl)benzamide], the pEC50 was 7.00 to 8.00.

`Cc1nc(-c2ccc(C(=O)Nc3cc(C(F)(F)F)ccn3)cc2)c2c(N)ncc(C(=O)N(C)C)n12` [Example 293, 8-amino-N,N,3-trimethyl-1-(4-(4-(trifluoromethyl)pyridin-2-ylcarbamoyl)phenyl)imidazo[1,5-a]pyrazine-5-carboxamide] gave a pEC50 of no more than 6.00.

On to `CN(C)C(=O)C(=O)N1CCC[C@@H](c2nc(-c3ccc(C(=O)Nc4cc(C5CC5)ccn4)cc3)c3c(N)nccn23)C1` [Example 111, (R)-4-(8-amino-3-(1-(2-(dimethylamino)-2-oxoacetyl)piperidin-3-yl)imidazo[1,5-a]pyrazin-1-yl)-N-(4-cyclopropylpyridin-2-yl)benzamide], for which the pEC50 is 7.00 to 8.00.

`COCCC(=O)N1CCC[C@@H](c2nc(-c3ccc(C(=O)Nc4cc(C#N)ccn4)cc3)c3c(N)nccn23)C1` [Example 97, (R)-4-(8-amino-3-(1-(3-methoxypropanoyl)piperidin-3-yl)imidazo[1,5-a]pyrazin-1-yl)-N-(4-cyanopyridin-2-yl)benzamide] gave a pEC50 greater than 8.00.

For `Cc1ccc(NC(=O)C(=O)N2CCC[C@@H](c3nc(-c4ccc(C(=O)Nc5cc(C6CC6)ccn5)cc4)c4c(N)nccn34)C2)cc1C` [Example 113, (R)-4-(8-amino-3-(1-(2-(3,4-dimethylphenylamino)-2-oxoacetyl)piperidin-3 yl)imidazo[1,5-a]pyrazin-1-yl)-N-(4-cyclopropylpyridin-2-yl)benzamide], the pEC50 is 7.00 to 8.00.

In turn, `COCCOCCOCCOCCOCCOCCOCCOCCC(=O)N1CCC[C@@H](c2nc(-c3ccc(C(=O)Nc4cc(C(F)(F)F)ccn4)cc3)c3c(N)nccn23)C1` [Example 80, (R)-4-(3-(1-2,5,8,11,14,17,20,23-octaoxahexacosanepiperidin-3-yl)-8-aminoimidazo[1,5-a]pyrazin-1-yl)-N-(4-(trifluoromethyl)pyridin-2-yl)benzamide] had a pEC50 greater than 8.00.

As for `NCCCCC(=O)N1CCC[C@@H](c2nc(-c3ccc(C(=O)Nc4ccccn4)cc3)c3c(N)nccn23)C1` [Example 54, (R)-4-(8-amino-3-(1-(5-aminopentanoyl)piperidin-3-yl)imidazo[1,5-a]pyrazin-1-yl)-N-(pyridin-2-yl)benzamide], the negative-log EC50 (pEC50) is 7.00 to 8.00.

With `N#Cc1ccnc(NC(=O)c2ccc(-c3nc(N4CCC4)n4ccnc(N)c34)cc2)c1` [Example 209, 4-(8-amino-3-(azetidin-1-yl)imidazo[1,5-a]pyrazin-1-yl)-N-(4-cyanopyridin-2-yl)benzamide], the negative-log EC50 (pEC50) was 6.00 to 7.00.

`Cc1nc(-c2ccc(C(=O)Nc3cc(C(F)(F)F)ccn3)cc2)c2c(N)ncc(C(=O)NCc3ccccc3)n12` [Example 292, 8-amino-N-benzyl-3-methyl-1-(4-(4-(trifluoromethyl)pyridin-2-ylcarbamoyl)phenyl)imidazo[1,5-a]pyrazine-5-carboxamide] gave a negative logarithm of the EC50 (pEC50) of 6.00 to 7.00.

For the molecule `CCC(=O)N1C2CCC1C(c1nc(-c3ccc(C(=O)Nc4ccccn4)cc3)c3c(N)nccn13)C2` (stereo not drawn) [Example 147, 4-(8-amino-3-(7-propionyl-7-azabicyclo[2.2.1]heptan-2-yl)imidazo[1,5-a]pyrazin-1-yl)-N-(pyridin-2-yl)benzamide], the pEC50 is 6.00 to 7.00.

Still in this assay, the particulars now being: read-out: EC50 Btk activity values - Assay Method A; IMAP-FP, 60 min pre-incubation, 5 μM ATP; class 100-1000 is given as ≧100 nM-<1 μM.
Take `C[C@H]1CC[C@@H](c2nc(-c3ccc(C(=O)Nc4cc(C(F)(F)F)ccn4)cc3)c3c(N)nccn23)CN1C(=O)C1CCC1(F)F` (relative stereo) [Example 190, 4-(8-amino-3-((cis)-1-(2,2-difluorocyclobutanecarbonyl)-6-methylpiperidin-3-yl)imidazo[1,5-a]pyrazin-1-yl)-N-(4-(trifluoromethyl)pyridin-2-yl)benzamide, TFA salt]: the pEC50 was greater than 8.00.

As for `Nc1nccn2c(N3CCC[C@H](NC(=O)C4CC4)C3)nc(-c3ccc(C(=O)Nc4cc(C(F)(F)F)ccn4)cc3)c12` [Example 222, (S)-4-(8-amino-3-(3-(cyclopropanecarboxamido)piperidin-1-yl)imidazo[1,5-a]pyrazin-1-yl)-N-(4-(trifluoromethyl)pyridin-2-yl)benzamide], the pEC50 was greater than 8.00.

For `CCCc1ccnc(NC(=O)c2ccc(-c3nc([C@H]4CC[C@H](O)CC4)n4ccnc(N)c34)c(C)c2)c1` [Example 10, 4-(8-amino-3-((trans)-4-hydroxycyclohexyl)imidazo[1,5-a]pyrazin)-3-methyl-N-(4-propylpyridin-2-yl)benzamide], the pEC50 is greater than 8.00.

Regarding `CC(C)c1ccnc(NC(=O)c2ccc(-c3nc([C@H]4CC[C@H](O)CC4)n4ccnc(N)c34)cc2)c1` [Example 6, 4-(8-amino-3-((trans)-4-hydroxycyclohexyl)imidazo[1,5-a]pyrazin-1-yl)-N-(4-isopropylpyridin-2-yl)benzamide], the pEC50 is greater than 8.00.

`CCOC(=O)N1CCC[C@@H](n2nc(-c3ccc(C(=O)Nc4cc(C(F)(F)F)ccn4)cc3)c3c(N)ncnc32)C1` [Example 273, (R)-ethyl 3-(4-amino-3-(4-(4-(trifluoromethyl)pyridin-2-ylcarbamoyl)phenyl)-1H-pyrazolo[3,4-d]pyrimidin-1-yl)piperidine-1-carboxylate]: the pEC50 is greater than 8.00.

Turning to `COCCC(=O)N1CCC[C@@H](n2nc(-c3ccc(C(=O)Nc4cc(C(F)(F)F)ccn4)cc3)c3c(N)ncnc32)C1` [Example 280, (R)-4-(4-amino-1-(1-(3-methoxypropanoyl)piperidin-3-yl)-1H-pyrazolo[3,4-d]pyrimidin-3-yl)-N-(4-(trifluoromethyl)pyridin-2-yl)benzamide], the negative logarithm of the EC50 (pEC50) is greater than 8.00.

Turning to `CCNC(=O)N1CCCC(c2cc(-c3ccc(C(=O)Nc4cc(C(F)(F)F)ccn4)cc3)c3c(N)ncnn23)C1` (stereo not drawn) [Example 252, 3-(4-amino-5-(4-(4-(trifluoromethyl)pyridin-2-ylcarbamoyl)phenyl)pyrrolo[1,2-f][1,2,4]triazin-7-yl)-N-ethylpiperidine-1-carboxamide], the negative logarithm of the EC50 (pEC50) was greater than 8.00.

With `COCCNC(=O)C1CCCN(c2nc(-c3ccc(C(=O)Nc4cc(C(F)(F)F)ccn4)cc3)c3c(N)nccn23)C1` (stereo not drawn) [Example 232, 1-(8-amino-1-(4-(4-(trifluoromethyl)pyridin-2-ylcarbamoyl)phenyl)imidazo[1,5-a]pyrazin-3-yl)-N-(2-methoxyethyl)piperidine-3-carboxamide, TFA salt], the negative logarithm of the EC50 (pEC50) was greater than 8.00.

Consider `COCCOCCOCCOCCC(=O)N1CCC[C@@H](n2nc(-c3ccc(C(=O)Nc4cc(C(F)(F)F)ccn4)cc3)c3c(N)ncnc32)C1` [Example 264, (R)-4-(1-(1-2,5,8,11-tetraoxatetradecanepiperidin-3-yl)-4-amino-1H-pyrazolo[3,4-d]pyrimidin-3-yl)-N-(4-(trifluoromethyl)pyridin-2-yl)benzamide], for which the negative-log EC50 (pEC50) was greater than 8.00.

Consider `CCc1cnc(N)c2c(-c3ccc(C(=O)Nc4cc(C(F)(F)F)ccn4)cc3)nc([C@@H]3CCCN(C(=O)C4(C)COC4)C3)n12` [Example 308, (R)-4-(8-amino-5-ethyl-3-(1-(3-methyloxetane-3-carbonyl)piperidin-3-yl)imidazo[1,5-a]pyrazin-1-yl)-N-(4-(trifluoromethyl)pyridin-2-yl)benzamide], for which the pEC50 is greater than 8.00.

Turning to `N#Cc1ccc(C(=O)N2CCC[C@@H](c3nc(-c4ccc(C(=O)Nc5cc(C6CC6)ccn5)cc4)c4c(N)nccn34)C2)cn1` [Example 117, (R)-4-(8-amino-3-(1-(6-cyanonicotinoyl)piperidin-3-yl)imidazo[1,5-a]pyrazin-1-yl)-N-(4-cyclopropylpyridin-2-yl)benzamide .], the pEC50 was greater than 8.00.

For `CCNC(=O)N1C[C@H](c2nc(-c3ccc(C(=O)Nc4cc(C(F)(F)F)ccn4)cc3)c3c(N)nccn23)CC[C@@H]1C` (relative stereo) [Example 201, (cis)-5-(8-amino-1-(4-(4-(trifluoromethyl)pyridin-2-ylcarbamoyl)phenyl)imidazo [1,5-a]pyrazin-3-yl)-N-ethyl-2-methylpiperidine-1-carboxamide, TFA salt], the negative-log EC50 (pEC50) was greater than 8.00.

For the molecule `CC(C)C(=O)N[C@H]1CCC[C@@H](c2nc(-c3ccc(C(=O)Nc4cc(C(F)(F)F)ccn4)cc3)c3c(N)nccn23)C1` (relative stereo) [Example 159, 4-(8-amino-3-((cis)-3-isobutyramidocyclohexyl)imidazo [1,5-a]pyrazin-1-yl)-N-(4-(trifluoromethyl)pyridin-2-yl)benzamide], the pEC50 is greater than 8.00.
